Source: patent publication US8765961B2, “Near infrared fluorescent imaging agent” (FUJIFILM Corporation, priority 2009, dated 2014)

Molecular target: T1, albumin (Bos taurus, UniProt P02769)
T1 construct: The test substance was dissolved to 5 μg/mL in calf serum; from tissue; host or cells: calf serum
Assay: Serum protein binding rate test by ultracentrifugation, albumin fraction
Format: in vitro ADME
Settings: 5 μg/mL in calf serum, 37° C., density gradient centrifugation, HPLC
Procedure: The test substance was dissolved to 5 μg/mL in calf serum, vibrated for 20 minutes at 37° C., and subjected to density gradient centrifugation (1,000,000×g, 24 h) using NaBr. Following the centrifugation, the dye concentrations in the albumin fraction, lipoprotein fraction, and the remaining fractions were quantified by HPLC.

T1 sequence (P02769 25-607): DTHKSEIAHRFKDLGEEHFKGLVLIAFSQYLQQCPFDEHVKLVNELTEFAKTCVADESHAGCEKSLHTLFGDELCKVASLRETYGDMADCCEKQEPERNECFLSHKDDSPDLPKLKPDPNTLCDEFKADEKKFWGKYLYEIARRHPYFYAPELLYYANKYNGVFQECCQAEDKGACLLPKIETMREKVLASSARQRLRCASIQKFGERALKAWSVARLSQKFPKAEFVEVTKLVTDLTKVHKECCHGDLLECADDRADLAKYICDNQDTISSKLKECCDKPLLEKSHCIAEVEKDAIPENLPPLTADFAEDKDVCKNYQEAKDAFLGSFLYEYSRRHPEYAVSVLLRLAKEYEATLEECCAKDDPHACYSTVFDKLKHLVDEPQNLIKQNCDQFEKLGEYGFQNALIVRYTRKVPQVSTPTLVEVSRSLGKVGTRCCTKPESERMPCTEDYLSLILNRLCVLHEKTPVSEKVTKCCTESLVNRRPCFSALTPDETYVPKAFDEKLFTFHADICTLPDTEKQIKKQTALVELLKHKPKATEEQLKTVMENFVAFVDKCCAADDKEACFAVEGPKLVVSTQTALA

SMILES: CC1(C)C(/C=C/C=C/C=C/C=C2\N(CCCCS(=O)(=O)O)c3ccc4ccccc4c3C2(C)C)=[N+](CCCCS(=O)(=O)[O-])c2ccc3ccccc3c21 [ICG, indocyanine green]
- Protein binding rate (%) Albumin: 18%
